The record followed here is US20020059032A1, “Rational selection of putative peptides from identified nucleotide or peptide sequences” (priority 1999, published 2002).

Structures are written as SMILES. Where a SMILES comes first, the peptide text is derived from it.

For the experiment, the target named is guinea pig brain membranes. Nature of the experiment: Binding test with guinea pig brain membranes. To be noted: tested on guinea pig brain membranes; read-out: IC50 = 100 μM. As for the experimental part: Binding Assay Alternative Protocol by Skatron
The experimental conditions are identical for all the binding assay protocols except for the fact that: i) the volume R in operation is 200 μl; ii) the test carried out in 96-well Falcon plates iii) the reaction is directly stopped by filtration on filterMat (ref. 11734) Skatron and the radioactivity associated with the filtrate is evaluated: either directly with a γ counter for the peptides labelled with […]: or with a […] in the presence of 5 ml of scintillating liquid.
Membrane Preparations of Guinea Pig Brains and Binding Assay
The guinea pigs are sacrificed by rupturing their cervical vertibrae, decapitated, and the brains are removed very rapidly and placed into a sucrose-Tris-HCl buffer (0.32 M sucrose 5 mM, Tris-HCl, 0.1 g/l bacitracin) at 4° C. (about 10 ml of buffer per brain). The brains are then homogenized using a Potter device and the homogenate is placed in incubation for 30 minutes at 37° C. under agitation, then centrifuged twice for 35 minutes at 100,000×g at 4° C. The protein content of the membrane preparations is evaluated according to the Bradford method (BioRad, according to the manufacturers protocol).
Bonding of Labelled Agonists to the Guinea Pig Brain Membrane Preparation The membranes are placed in a buffer (50 mM of Tris-HCl, 5 mM of MgCl2 and 0.1 g/l of bacitracin) at the desired protein concentration (iodized CCK bond, 0.1 mg of protein/ml; iodized gastrin bond: 0.5 mg of proteins/ml). They are then incubated in the presence of a labelled ligand in a total volume of 500 μl (about 10 pM for the iodized CCK8, 20 pM for the iodized gastrin13), 50-80 minutes at 25° C., and in the presence or absence of cold agonists. The reaction is stopped with 3 ml of additional BSA buffer (20 g/l) at 4° C., the tubes are centrifuged at 10,000×g, the supernatant is drawn off and the radioactivity associated with the precipitate is evaluated with a γ counter.
On to `C[C@@H](O)[C@H](NC(=O)[C@@H](N)CCC(=O)O)C(=O)N[C@@H](CCCCN)C(=O)N[C@@H](Cc1c[nH]cn1)C(=O)NCC(=O)NCC(=O)N[C@@H](Cc1c[nH]cn1)C(=O)N[C@@H](CCCCN)C(=O)N[C@@H](CC(N)=O)C(N)=O` [Example 49, H-ETKHGGHKN-NH2] (H-ETKHGGHKN-NH2), for which the IC50 amounted to 330 nM. The value for `CC(C)C[C@H](NC(=O)[C@H](C)NC(=O)[C@H](CCC(=O)O)NC(=O)[C@H](CCC(N)=O)NC(=O)[C@@H](N)CC(C)C)C(=O)N[C@@H](CO)C(=O)N[C@@H](CCCCN)C(=O)N[C@@H](C)C(=O)N[C@@H](C)C(N)=O` [Example 50, H-LQEALSKAA-NH2] (H-LQEALSKAA-NH2) was 1000 nM. Consider `CC(C)[C@H](NC(=O)[C@H](C)NC(=O)[C@@H](NC(=O)[C@H](Cc1c[nH]c2ccccc12)NC(=O)[C@@H]1CCCN1)[C@@H](C)O)C(=O)N[C@@H](CC(=O)O)C(=O)N[C@H](C(=O)N[C@@H](CO)C(=O)N[C@H](C(=O)N[C@@H](CC(=O)O)C(N)=O)C(C)C)[C@@H](C)O` [Example 51, H-PWTAVDTSVD-NH2] (H-PWTAVDTSVD-NH2), for which the IC50 is 140 nM. As for `CC[C@H](C)[C@H](NC(=O)[C@H](C)NC(=O)[C@H](C)NC(=O)[C@@H](NC(=O)[C@H](CO)NC(=O)[C@H](C)NC(=O)[C@H](Cc1ccccc1)NC(=O)[C@H](Cc1ccc(O)cc1)NC(=O)[C@H](CCC(N)=O)NC(=O)[C@@H](NC(=O)[C@@H](N)C(C)C)[C@@H](C)CC)[C@@H](C)CC)C(=O)NCC(=O)N[C@@H](CC(=O)O)C(=O)N[C@@H](CCCNC(=N)N)C(N)=O` [Example 52, H-VIQYFASIAAIGDR-NH2] (H-VIQYFASIAAIGDR-NH2), the IC50 came to 7000 nM.

For the molecule `CC(C)C[C@H](NC(=O)[C@@H](N)CCC(N)=O)C(=O)N[C@@H](Cc1c[nH]c2ccccc12)C(=O)N[C@@H](CC(=O)O)C(=O)N[C@H](C(=O)N[C@@H](C)C(=O)N[C@@H](Cc1c[nH]cn1)C(=O)N[C@@H](CO)C(=O)N[C@H](C(=O)N[C@@H](CCCCN)C(=O)N[C@@H](CCC(=O)O)C(=O)N[C@@H](CCCCN)C(=O)N[C@@H](Cc1ccccc1)C(N)=O)C(C)C)C(C)C` [Example 54, H-QLWDVAHSVKEKF-NH2] (H-QLWDVAHSVKEKF-NH2), the IC50 came to 300 nM. The value for `CC[C@H](C)[C@H](NC(=O)[C@H](C)NC(=O)[C@@H](NC(=O)[C@H](CCC(=O)O)NC(=O)[C@H](CCC(=O)O)NC(=O)[C@@H](NC(=O)CNC(=O)[C@H](Cc1ccccc1)NC(=O)[C@@H](NC(=O)[C@H](CC(=O)O)NC(=O)[C@@H](N)[C@@H](C)O)[C@@H](C)CC)C(C)C)[C@@H](C)O)C(N)=O` [Example 56, H-TDIFGVEETAI-NH2] (H-TDIFGVEETAI-NH2) was 730 nM; that for `CC(C)[C@H](NC(=O)[C@H](C)NC(=O)[C@@H](NC(=O)[C@@H](NC(=O)[C@H](C)NC(=O)[C@@H](NC(=O)[C@@H](N)CCC(N)=O)[C@@H](C)O)C(C)C)[C@@H](C)O)C(=O)N[C@@H](CCC(=O)O)C(=O)N[C@@H](CCCCN)C(=O)N1CCC[C@H]1C(=O)N[C@@H](C)C(=O)N[C@@H](CC(=O)O)C(=O)N[C@@H](CCCCN)C(N)=O` [Example 57, H-QTAVTAVEKPADK-NH2] (H-QTAVTAVEKPADK-NH2) was 60 nM. The value for `CSCC[C@H](NC(=O)[C@H](C)NC(=O)[C@@H](NC(=O)[C@@H](N)CCC(=O)O)C(C)C)C(=O)N[C@@H](CC(=O)O)C(=O)N[C@@H](CC(=O)O)C(=O)N[C@@H](Cc1c[nH]cn1)C(=O)N[C@@H](CCCCN)C(=O)N[C@@H](CC(C)C)C(=O)N[C@@H](CO)C(=O)N[C@@H](CC(C)C)C(=O)N[C@@H](CC(=O)O)C(=O)N[C@@H](CCC(=O)O)C(=O)N[C@@H](CC(C)C)C(N)=O` [Example 58, H-EVAMDDHKLSLDEL-NH2] (H-EVAMDDHKLSLDEL-NH2) was 860 nM; that for `CC(C)[C@H](NC(=O)[C@H](C)NC(=O)[C@H](CCCCN)NC(=O)[C@H](C)NC(=O)[C@@H]1CCCN1C(=O)[C@@H](NC(=O)[C@@H](NC(=O)[C@@H](N)[C@@H](C)O)C(C)C)[C@@H](C)O)C(=O)N[C@H](C(=O)N[C@H](C(=O)N1CCC[C@H]1C(N)=O)[C@@H](C)O)[C@@H](C)O` [Example 59, H-TVTPAKAVTTP-NH2] (H-TVTPAKAVTTP-NH2) was 410 nM. Turning to `CC[C@H](C)[C@H](NC(=O)[C@H](CCCCN)NC(=O)[C@H](Cc1ccccc1)NC(=O)[C@H](CCC(N)=O)NC(=O)[C@H](C)NC(=O)[C@H](Cc1c[nH]c2ccccc12)NC(=O)[C@@H](N)CCC(N)=O)C(=O)N[C@@H](CCC(N)=O)C(=O)N[C@@H](Cc1c[nH]c2ccccc12)C(=O)N[C@@H](CC(N)=O)C(=O)N[C@@H](CCC(N)=O)C(=O)N[C@@H](CCCNC(=N)N)C(=O)N[C@@H](Cc1c[nH]c2ccccc12)C(N)=O` [Example 61, H-QWAQFKIQWNQRW-NH2] (H-QWAQFKIQWNQRW-NH2), the IC50 turned out to be 1110 nM.

Turning to `CC[C@H](C)[C@H](NC(=O)CNC(=O)[C@H](CCCCN)NC(=O)[C@H](CO)NC(=O)[C@H](Cc1ccc(O)cc1)NC(=O)[C@@H](N)CC(=O)O)C(=O)N[C@H](C(=O)N[C@H](C(=O)N[C@H](C(=O)N[C@@H](CCCCN)C(=O)N[C@@H](CC(N)=O)C(=O)N[C@@H](CC(=O)O)C(N)=O)[C@@H](C)O)C(C)C)[C@@H](C)O` [Example 62, H-DYSKGITVTKND-NH2] (H-DYSKGITVTKND-NH2), the IC50 came to 670 nM.

Turning to `CC[C@H](C)[C@H](NC(=O)[C@@H](N)C(C)C)C(=O)N[C@@H](CCC(N)=O)C(=O)N[C@@H](Cc1ccc(O)cc1)C(=O)N[C@@H](CC(C)C)C(=O)N[C@@H](C)C(=O)N[C@@H](Cc1c[nH]cn1)C(=O)N[C@H](C(=O)N[C@@H](C)C(=O)N[C@@H](CO)C(=O)N[C@@H](CO)C(=O)N[C@@H](Cc1c[nH]cn1)C(=O)N[C@@H](CCCCN)C(N)=O)C(C)C` [Example 63, H-VIQYLAHVASSHK-NH2] (H-VIQYLAHVASSHK-NH2), the IC50 was 20 nM. For the molecule `CSCC[C@H](NC(=O)[C@H](CC(C)C)NC(=O)CNC(=O)[C@H](Cc1ccccc1)NC(=O)[C@H](Cc1ccccc1)NC(=O)[C@H](CCC(N)=O)NC(=O)[C@H](CCC(N)=O)NC(=O)[C@@H]1CCCN1C(=O)[C@H](CCCCN)NC(=O)[C@@H]1CCCN1C(=O)[C@@H](N)Cc1ccc(O)cc1)C(N)=O` [Example 64, H-YPKPQQFFGLM-NH2] (H-YPKPQQFFGLM-NH2), the IC50 is 1 nM. The same measure for `CC(C)C[C@H](NC(=O)[C@H](CCC(N)=O)NC(=O)[C@H](C)NC(=O)[C@@H](NC(=O)[C@H](CCC(=O)O)NC(=O)[C@H](CCC(=O)O)NC(=O)[C@H](CCCCN)NC(=O)[C@@H]1CCCN1C(=O)[C@@H]1CCCN1C(=O)[C@@H](N)CCC(=O)O)[C@@H](C)O)C(=O)N[C@H](C(=O)NCC(=O)N1CCC[C@H]1C(=O)N[C@@H](CCC(=O)O)C(=O)N[C@@H](C)C(N)=O)[C@@H](C)O` [Example 65, H-EPPKEETAQLTGPEA-NH2] (H-EPPKEETAQLTGPEA-NH2): 4000 nM; for `CSCC[C@H](NC(=O)[C@@H](N)Cc1ccc(O)cc1)C(=O)N[C@@H](Cc1c[nH]cn1)C(=O)NCC(=O)N[C@@H](Cc1c[nH]cn1)C(=O)N[C@@H](CCCNC(=N)N)C(=O)N[C@@H](C)C(=O)N1CCC[C@H]1C(=O)NCC(N)=O` [Example 66, H-YMHGHRAPG-NH2] (H-YMHGHRAPG-NH2): 2 nM; for `CSCC[C@H](N)C(=O)NCC(=O)N[C@@H](CCCCN)C(=O)N[C@@H](Cc1c[nH]c2ccccc12)C(=O)N[C@@H](Cc1c[nH]cn1)C(=O)N[C@H](C(=O)NCC(N)=O)C(C)C` [Example 67, H-MGKWHVG-NH2] (H-MGKWHVG-NH2): 160 nM. For the molecule `CC(C)C[C@H](NC(=O)[C@H](CO)NC(=O)[C@H](Cc1c[nH]cn1)NC(=O)[C@H](CO)NC(=O)[C@H](CO)NC(=O)[C@@H](N)CO)C(=O)N[C@@H](CO)C(=O)N[C@@H](Cc1c[nH]cn1)C(=O)N[C@@H](CCCCN)C(N)=O` [Example 68, H-SSSHSLSHK-NH2] (H-SSSHSLSHK-NH2), the IC50 turned out to be 25 nM. In the case of `CC[C@H](C)[C@H](NC(=O)[C@H](CCCNC(=N)N)NC(=O)[C@H](CC(C)C)NC(=O)[C@H](CC(C)C)NC(=O)CNC(=O)[C@@H](NC(=O)[C@@H](N)Cc1c[nH]cn1)C(C)C)C(=O)N[C@@H](CCCCN)C(N)=O` [Example 69, H-HVGLLRIK-NH2] (H-HVGLLRIK-NH2), the IC50 worked out at 37 nM.

What is called IC50 is the point on the concentration scale where inhibition reaches its midpoint.
